Assay results from patent US7709514B2, “Therapeutic molecules and methods-1” (Cortical Pty Ltd, priority 2002, dated 2010).

Columns and labels:
[1] = tested on: IL-1-induced COX-2 expression; test: IL-1-induced COX-2 expression in S112 human dermal fibroblasts (MIF-dependent bioassay); format: cell-based
Procedure: The activity of compounds was studied in a bioassay utilising MIF-dependent activation of human dermal fibroblasts. […] IL-1-induced COX-2 expression is therefore a MIF-dependent event. […] Prior to experimentation, cells were seeded at 10^5 cells/ml in RPMI/0.1% BSA for 18 hours. […] After 6 hours, cells were collected and intracellular COX-2 protein determined by permeabilisation flow cytometry. […] Cellular fluorescence was determined using a flow cytometer. At least 5000 events were counted for each reading, each of which was performed in duplicate, and the results expressed in mean fluorescence intensity (MFI) after subtraction of negative control-labelled cell fluorescence. The effect of each compound was determined by subtracting the IL-1+compound-treated cell MFI from the IL-1-treated cell (control) MFI and expressed as % inhibition. In each case the % inhibition of IL-1-induced COX-2 expression is expressed as the mean, or mean±SEM where results are available from multiple experiments.

[2] = tested on: MIF-induced proliferation of S112 human dermal fibroblasts; test: dermal fibroblast proliferation induced by recombinant MIF; format: cell-based; settings: compound 0.013 μM
Procedure: The activity of compound 5 was studied in a bioassay utilising MIF-induced proliferation of human dermal fibroblasts. S112 human dermal fibroblasts were propagated in RPMI/10% foetal calf serum (FCS). Prior to experimentation, cells were seeded at 10^5 cells/ml in RPMI/0.1% 13SA for 18 hours. At time point zero, culture medium was replaced with RPMI/10% FCS and treatments administered. Cells were treated with recombinant human macrophage migration inhibitory factor (MIF) 50 ng/ml and/or compound 5 at a 1-1000 molar ratio to the concentration of MIF. At a time point 30 hours later, cells were pulsed with 1 μCi/well of ^3H-thymidine. At a time point 48 hours after commencement of the experiment, cells were harvested using a semi-automated cell harvester. The radioactivity incorporated into DNA was determined by liquid scintillation counting, with results expressed as [^3H] thymidine incorporation.

[3] = tested on: murine endotoxic shock model; test: murine endotoxic shock model (LPS), cytokines by ELISA; format: in vivo, mice
Procedure: The activity of compound 5 was studied in the murine endotoxic shock model. This model has been previously shown to be dependent on MIF (21). Administration of a substance which inhibits the cytokine or biological activity of MIF would be expected to result in a reduction in serum levels of cytokines such as IL-1 or IL-6. Endotoxaemia was induced by intra-peritoneal injection of lipopolysaccharide (LPS) (15 mg/kg) in 400 μl saline. Mice were treated with a saline solution (control) only, a saline solution and LPS, or LPS and compound 5 at a dose of 15 mg/kg body weight, administered by intra-peritoneal injection at 24 hours, 12 hours and 1 hour before intra-peritoneal LPS injection. After 1.5 hours mice were humanely killed by CO2 inhalation then neck dislocation. Serum was obtained from blood obtained by cardiac puncture prior to death and measured for cytokines including interleukin 1 (IL-1) and interleukin 6 (IL-6) by ELISA. The production of IL-1 and IL-6 has been previously shown to be dependent on MIF (22). Macrophages were obtained by lavage of the peritoneal cavity using normal saline and placed into 24 well tissue culture plates for 18 hours in RPMI/10% FCS. The cultured peritoneal macrophage supernatants were then analysed for cytokines including IL-6. The peritoneal lavage supernatants were also analysed for cytokines including IL-6.
The effect of compound 5 was tested under a variety of conditions in animals exposed to endotoxic shock induced as above by the injection of 15 mg/kg LPS by intraperitoneal injection. In each case compounds were administered by intraperitoneal injection at a dose of 15 mg/kg. Compound 5 administration was associated with reductions in serum IL-1, IL-6, and TNF concentration whether administered by intraperitoneal injection (IP) or by oral gavage, and under a variety of administration regimens.

For `CCCCCOC(=O)c1ccc2[nH]c(=O)[nH]c2c1` [Compound 5], the inhibition at 1 µM ([1]; Homo sapiens, Fibroblast, compound 1 μM, S112 cells, IL-1 0.1 ng/ml, 6 hours) was 7.7%, the inhibition at 10 µM ([1]; Homo sapiens, Fibroblast, compound 10 μM, S112 cells, IL-1 0.1 ng/ml, 6 hours) was 21.4% and the inhibition at 25 µM ([1]; Homo sapiens, Fibroblast, compound 25 μM, S112 cells, IL-1 0.1 ng/ml, 6 hours) was 34%. The inhibition at 50 µM ([1]; Homo sapiens, Fibroblast, compound 50 μM, S112 cells, IL-1 0.1 ng/ml, 6 hours, read-out: % inhibition of IL-1-induced COX-2 expression) was 48.4%, the inhibition at 100 µM ([1]; Homo sapiens, Fibroblast, compound 100 μM, S112 cells, IL-1 0.1 ng/ml, 6 hours) was 52.2% and the “% Inhibition of IL-1 induced COX-2 expression” value ([1]; Table 2 experiment, Compound 5 50 μM alone) was 45.1%. For the same compound, the “effect on proliferation of S112 cells treated with recombinant human MIF” value ([2]; FIG. 12) was “marked and statistically significant inhibitory effect”, the inhibition at 0.013 µM ([2]; Homo sapiens, Fibroblast, read-out: % inhibition of MIF-induced proliferation, rhMIF 50 ng/ml, S112, P < 0.001) was 98% and the “serum IL-1 concentration” value ([3]; FIG. 5, LPS alone vs LPS with compound 5) was “marked reduction”. For the same compound, the “Serum IL-1 at 1.5 h, LPS + cpd” value ([3]; IP injection 15 mg/kg at −24, −6, −1 h, LPS alone 42.49) was 39.82, the “Serum IL-1 at 6 h, LPS + cpd” value ([3]; IP injection 15 mg/kg at −24, −6, −1 h, LPS alone 786.6) was 170.2 and the “Serum IL-1 at 1.5 h, LPS + cpd” value ([3]; IP injection 15 mg/kg at −24, −12, −1 h, LPS alone 484.8) was 283.8. The “Serum IL-6 at 1.5 h, LPS + cpd” value ([3]; IP injection 15 mg/kg at −24, −12, −1 h, LPS alone 92790) was 75260, the “Serum IL-6 at 6 h, LPS + cpd” value ([3]; IP injection 15 mg/kg at −1 h, LPS alone 215100) was 150300 and the “Serum IL-1 at 1.5 h, LPS + cpd” value ([3]; IP injection 15 mg/kg at −18 h, LPS alone 301.5) was 105.9. For the same compound, the “Serum TNF at 1.5 h, LPS + cpd” value ([3]; IP injection 15 mg/kg at −18 h, LPS alone 4263) was 2422, the “Serum IL-6” value ([3]; LPS 15 mg/kg IP, compound 15 mg/kg IP at 24, 12 and 1 hour before LPS, 1.5 hours after LPS, LPS only 261.05) was 99.78 ng/mL and the “Peritoneal lavage IL-6” value ([3]; LPS 15 mg/kg IP, compound 15 mg/kg IP at 24, 12 and 1 hour before LPS, LPS only 16.11) was 7.07 ng/mL. For the same compound, the “Cultured peritoneal macrophage IL-6” value ([3]; LPS 15 mg/kg IP, compound 15 mg/kg IP at 24, 12 and 1 hour before LPS, macrophages cultured 18 hours, LPS only 3.40) was 1.33 ng/mL, the “serum IL-1, IL-6, and TNF concentration” value ([3]; LPS 15 mg/kg, IP or oral gavage, variety of administration regimens) was “reductions” and the “Serum IL-1 at 1.5 h, LPS + cpd” value ([3]; Oral gavage 5 mg/kg at −24 h, −1 h, LPS alone 237.0) was 182.5. For the same compound, the “Serum IL-1 at 1.5 h, LPS + cpd” value ([3]; Oral gavage 15 mg/kg at −24, −6, −1 h, LPS alone 103.7) was 47.1, the “Serum IL-1 at 1.5 h, LPS + cpd” value ([3]; Oral gavage 15 mg/kg at −24 h, LPS alone 292.0) was 152.6 and the “Serum IL-6 at 1.5 h, LPS + cpd” value ([3]; Oral gavage 15 mg/kg at −24 h, LPS alone 121100) was 80250.
